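Exposure lasted 48 hours, with cells grown in 96-well plates and compounds tested at five concentrations. Abbreviation: GI50, concentration required for 50% inhibition of growth.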 Calls of active or inactive are those of the source. No stated cut-off is given here; in the data, active = GI50 up to about 1.1 µM and inactive = higher.
How the values were obtained:
Experiment in all cases: NCI tumour cell line growth inhibition, 48 h
NCI-H23 = system: NCI-H23
T47D = system: T47D
OVCAR-4 = system: OVCAR-4
SK-MEL-28 = system: SK-MEL-28
A549 = system: A549
PC-3 = system: PC-3
RPMI-8226 = system: RPMI-8226
A498 = system: A498
NCI-H226 = system: NCI-H226
SN12C = system: SN12C
HCT-116 = system: HCT-116
SF-268 = system: SF-268
Malme-3M = system: Malme-3M
NCI/ADR-RES = system: NCI/ADR-RES
SK-OV-3 = system: SK-OV-3
MCF7 = system: MCF7
K562 = system: K562
EKVX = system: EKVX
MOLT-4 = system: MOLT-4
HL-60 = system: HL-60

Compound	GI50 (NCI-H23)	GI50 (T47D)	GI50 (OVCAR-4)	GI50 (SK-MEL-28)	GI50 (A549)	GI50 (PC-3)	GI50 (RPMI-8226)	GI50 (A498)	GI50 (NCI-H226)	GI50 (SN12C)	GI50 (HCT-116)	GI50 (SF-268)	GI50 (Malme-3M)	GI50 (NCI/ADR-RES)	GI50 (SK-OV-3)	GI50 (MCF7)	GI50 (K562)	GI50 (EKVX)	GI50 (MOLT-4)	GI50 (HL-60)
Cc1[nH]c(C)c(CN(C)C)c1CN(C)C	> 100 µM (inactive)	> 100 µM (inactive)	> 100 µM (inactive)	> 100 µM (inactive)	> 100 µM (inactive)	> 100 µM (inactive)	> 100 µM (inactive)	> 100 µM (inactive)	> 100 µM (inactive)	> 100 µM (inactive)	> 100 µM (inactive)	> 100 µM (inactive)	> 100 µM (inactive)	> 100 µM (inactive)	> 100 µM (inactive)	> 100 µM (inactive)	> 100 µM (inactive)	> 100 µM (inactive)		
CNc1ncccc1Nc1cc(=O)n2c3cccnc3n(C)c2c1	74.6 µM (inactive)	> 100 µM (inactive)	38.9 µM (inactive)	> 100 µM (inactive)	> 100 µM (inactive)	9.51 µM (inactive)	> 100 µM (inactive)	89.7 µM (inactive)	> 100 µM (inactive)		> 100 µM (inactive)	51.8 µM (inactive)		> 100 µM (inactive)	> 100 µM (inactive)	> 100 µM (inactive)	> 100 µM (inactive)	> 100 µM (inactive)	> 100 µM (inactive)	
CN(C)Cc1cc(/N=N/c2ccc(Cl)cc2)cc(CN(C)C)c1O	21.2 µM (inactive)	10.5 µM (inactive)		11.7 µM (inactive)	8.93 µM (inactive)	5.41 µM (inactive)	12.8 µM (inactive)	14.7 µM (inactive)	4.39 µM (inactive)	11.4 µM (inactive)	4.85 µM (inactive)	10.8 µM (inactive)	14.7 µM (inactive)	3.07 µM (inactive)	17.1 µM (inactive)	7.87 µM (inactive)	2.52 µM (inactive)	> 10 µM (inactive)	2.75 µM (inactive)	1.44 µM (inactive)
COc1ccc(C(=O)N(C(=O)N2CCN(c3ccccc3)CC2)S(=O)(=O)c2ccccc2)cc1	24.1 µM (inactive)	23 µM (inactive)	30.5 µM (inactive)	30.8 µM (inactive)	28.4 µM (inactive)	30.5 µM (inactive)		53.8 µM (inactive)	22.2 µM (inactive)	24.3 µM (inactive)	18.8 µM (inactive)	31.8 µM (inactive)	28.2 µM (inactive)	21.9 µM (inactive)	86.5 µM (inactive)	29.6 µM (inactive)	24.2 µM (inactive)	20.7 µM (inactive)	19.5 µM (inactive)	22.1 µM (inactive)
O=S(=O)(c1ccccc1)[C@@H]1[C@H]2C=C[C@](CS)(O2)[C@H]1S(=O)(=O)c1ccccc1	79.6 µM (inactive)	84.3 µM (inactive)	42.1 µM (inactive)	> 100 µM (inactive)	> 100 µM (inactive)	35.6 µM (inactive)		> 100 µM (inactive)	> 100 µM (inactive)	38.2 µM (inactive)	13.3 µM (inactive)	> 100 µM (inactive)	> 100 µM (inactive)	53.5 µM (inactive)	> 100 µM (inactive)	62.5 µM (inactive)	14.4 µM (inactive)	78.9 µM (inactive)	16.5 µM (inactive)	32.8 µM (inactive)
C[N+]1=C2[B-](C(C)(C)C)=[N+](C(C)(C)C)[B-]2(C(C)(C)C)[N+](C)=C2[B-](C(C)(C)C)=[N+](C(C)(C)C)[B-]21C(C)(C)C (stereo unspecified)	> 100 µM (inactive)	> 100 µM (inactive)	> 100 µM (inactive)	> 100 µM (inactive)	> 100 µM (inactive)	> 100 µM (inactive)	> 100 µM (inactive)	> 100 µM (inactive)	> 100 µM (inactive)	> 100 µM (inactive)	> 100 µM (inactive)	> 100 µM (inactive)	> 100 µM (inactive)	> 100 µM (inactive)	> 100 µM (inactive)	59.4 µM (inactive)	> 100 µM (inactive)	> 100 µM (inactive)	> 100 µM (inactive)	> 100 µM (inactive)
CC(=O)C1(O)CCC2(O)C3(O)CC=C4CC(O)CCC4(C)C3CC(OC(=O)c3ccc(O)cc3)C12C (stereo unspecified)	> 100 µM (inactive)	> 100 µM (inactive)	> 100 µM (inactive)	> 100 µM (inactive)	> 100 µM (inactive)	> 100 µM (inactive)	> 100 µM (inactive)	> 100 µM (inactive)	80.2 µM (inactive)	> 100 µM (inactive)	> 100 µM (inactive)	> 100 µM (inactive)		> 100 µM (inactive)	> 100 µM (inactive)	> 100 µM (inactive)	27 µM (inactive)	> 100 µM (inactive)	46.2 µM (inactive)	> 100 µM (inactive)
CC(C)(C)OC(=O)N(CCCCNC(=O)c1ccccc1)CCCNC(=O)c1ccccc1	> 100 µM (inactive)	74.3 µM (inactive)	> 100 µM (inactive)	> 100 µM (inactive)	> 100 µM (inactive)	98.6 µM (inactive)	> 100 µM (inactive)	> 100 µM (inactive)	> 100 µM (inactive)	> 100 µM (inactive)	> 100 µM (inactive)	> 100 µM (inactive)		68.1 µM (inactive)	> 100 µM (inactive)	> 100 µM (inactive)	> 100 µM (inactive)	> 100 µM (inactive)	46.8 µM (inactive)	31.4 µM (inactive)
Cc1ccsc1/C=N/Nc1ncccn1	> 100 µM (inactive)	> 100 µM (inactive)	> 100 µM (inactive)	> 100 µM (inactive)	> 100 µM (inactive)	> 100 µM (inactive)	> 100 µM (inactive)	> 100 µM (inactive)	> 100 µM (inactive)	> 100 µM (inactive)	> 100 µM (inactive)	> 100 µM (inactive)	> 100 µM (inactive)	> 100 µM (inactive)	> 100 µM (inactive)	0.741 µM (active)	> 100 µM (inactive)	> 100 µM (inactive)	> 100 µM (inactive)	> 100 µM (inactive)
O=C(/C=C/c1ccc(Cl)c(Cl)c1)CCN1CCN(CCC(=O)/C=C/c2ccc(Cl)c(Cl)c2)CC1	> 10 µM (inactive)	24.8 µM (inactive)	15.7 µM (inactive)	20.4 µM (inactive)	30.2 µM (inactive)	20.1 µM (inactive)	3.21 µM (inactive)	34.9 µM (inactive)	19.7 µM (inactive)	26.3 µM (inactive)	7.55 µM (inactive)	35.4 µM (inactive)		36.9 µM (inactive)	45.6 µM (inactive)	4.04 µM (inactive)	22.6 µM (inactive)	30.4 µM (inactive)	22.3 µM (inactive)	6.22 µM (inactive)
C/C(=N/NC(=S)Nc1cccc(Cl)c1)c1cccc(/C(C)=N\NC(=S)Nc2cccc(Cl)c2)n1	3.69 µM (inactive)	3.48 µM (inactive)	5.14 µM (inactive)	> 100 µM (inactive)	2.96 µM (inactive)	3.46 µM (inactive)	3.05 µM (inactive)	4.85 µM (inactive)	0.998 µM (active)	3.48 µM (inactive)	2.4 µM (inactive)		1.43 µM (inactive)	1.09 µM (active)	4.22 µM (inactive)	1.99 µM (inactive)	2.62 µM (inactive)	3.44 µM (inactive)	2.69 µM (inactive)	1.22 µM (inactive)
O=c1cc(-c2cccnc2)[nH]c2cc3c(cc12)OCO3	10.3 µM (inactive)	> 100 µM (inactive)	> 73.3 µM (inactive)	6.18 µM (inactive)	19.2 µM (inactive)	11 µM (inactive)	34 µM (inactive)	10.7 µM (inactive)	18.8 µM (inactive)	12.2 µM (inactive)	4.8 µM (inactive)	12.9 µM (inactive)	3.15 µM (inactive)	14.8 µM (inactive)	> 20.9 µM (inactive)	5.92 µM (inactive)	5.07 µM (inactive)		17.1 µM (inactive)	7.35 µM (inactive)
COC(=O)C(NC(=O)c1ccccc1)c1ccco1 (stereo unspecified)	> 100 µM (inactive)	> 100 µM (inactive)		> 100 µM (inactive)	> 100 µM (inactive)	> 100 µM (inactive)	> 100 µM (inactive)	> 100 µM (inactive)	> 100 µM (inactive)	> 100 µM (inactive)	> 100 µM (inactive)	> 100 µM (inactive)	> 100 µM (inactive)	> 100 µM (inactive)	> 100 µM (inactive)	> 100 µM (inactive)	> 100 µM (inactive)	> 100 µM (inactive)	> 100 µM (inactive)	> 100 µM (inactive)
OCCNc1ncnc2[nH]cnc12	> 100 µM (inactive)	> 100 µM (inactive)	> 100 µM (inactive)	> 100 µM (inactive)	> 100 µM (inactive)	> 100 µM (inactive)	> 100 µM (inactive)	> 100 µM (inactive)	> 100 µM (inactive)	> 100 µM (inactive)	> 100 µM (inactive)	> 100 µM (inactive)	> 100 µM (inactive)	> 100 µM (inactive)	> 100 µM (inactive)	> 100 µM (inactive)	> 100 µM (inactive)	> 100 µM (inactive)	> 100 µM (inactive)	> 100 µM (inactive)

Source: ChEMBL document CHEMBL1201862, “PubChem BioAssay data set” (2004)
